Test results published in PMC9569995, “Study of Biological Activities and ADMET-Related Properties of Salicylanilide-Based Peptidomimetics” (International Journal of Molecular Sciences, 2022).
Values after ≈ are worked out from the molar mass of the structure shown. Like-named read-outs stand apart in the source and are kept apart here.

Key:
[1] = tested on: methicillin-resistant S. aureus 63718; test: In vitro antibacterial evaluation, MIC by microtitration broth method; conditions: Staphylococcus aureus
[2] = tested on: vancomycin-resistant E. faecalis VRE 368; test: as above; conditions: Enterococcus faecalis
[3] = tested on: methicillin-resistant S. aureus 63718; test: Determination of minimum bactericidal concentrations (agar aliquot subculture); conditions: Staphylococcus aureus
[4] = tested on: methicillin-resistant S. aureus SA 630; test: In vitro antibacterial evaluation, MIC by microtitration broth method; conditions: Staphylococcus aureus
[5] = tested on: human monocytic leukemia cell line THP-1; test: In vitro cell viability analysis (CCK-8); assay type: cell-based; conditions: ± SD, n = 6, medium with 10% FBS, 24 h
Experimental: Human monocytic leukemia THP-1 cells obtained from the European Collection of Cell Cultures (ECACC, Salisbury, UK) were used for in vitro antiproliferative assays. They were routinely cultured in Roswell Park Memorial Institute RPMI 1640 medium supplemented with 10% fetal bovine serum (FBS), 2% L-glutamine, 1% penicillin, and streptomycin (all from Sigma-Aldrich) at 37 °C with 5% CO2. The cells were incubated in a complete medium (i.e., containing FBS) with test compounds at 37 °C with 5% CO2 for 24 h, similarly as we described previously. The effect of the test compounds dissolved in DMSO on cell viability was determined using a Cell Counting Kit-8 (CCK-8; Sigma) according to the manufacturer’s instructions.

[6] = tested on: Staphylococcus aureus ATCC 29213; test: In vitro antibacterial evaluation, MIC by microtitration broth method
[7] = tested on: methicillin-resistant S. aureus SA 3202; test: as above; conditions: Staphylococcus aureus
[8] = tested on: Staphylococcus aureus ATCC 29213; test: Determination of minimum bactericidal concentrations (agar aliquot subculture); conditions: ATCC29213
[9] = tested on: methicillin-resistant S. aureus SA 630; test: as above; conditions: Staphylococcus aureus
M. smegmatis ATCC 700084 = test: In vitro antimycobacterial evaluation, MIC (broth dilution micro-method); assay type: cell-based, Mycobacterium smegmatis; conditions: Mycolicibacterium smegmatis
Experimental: For M. smegmatis, the broth dilution micro-method in Middlebrook 7H9 medium (Difco) supplemented with ADC Enrichment (Difco) was used. […] Bacterial inocula were prepared by transferring colonies from culture to sterile water. The cell density was adjusted to 0.5 McFarland units using a densitometer (Densi-La-Meter, LIAP, Riga, Latvia). The final inoculum was made by 1:1000 dilution of the suspension with sterile water. Drug-free controls, sterility controls, and controls consisting of medium and DMSO alone were included. The determination of results was performed visually after three days of static incubation in the darkness at 37 °C in an aerobic atmosphere.

[10] = tested on: Enterococcus faecalis ATCC 29212; test: In vitro antibacterial evaluation, MIC by microtitration broth method
[11] = tested on: Mycobacterium tuberculosis H37Ra/ATCC 25177; test: In vitro antimycobacterial evaluation, MIC (alamarBlue); conditions: MT
[12] = tested on: methicillin-resistant S. aureus SA 3202; test: Determination of minimum bactericidal concentrations (agar aliquot subculture); conditions: Staphylococcus aureus
[13] = tested on: vancomycin-resistant E. faecalis VRE 725B; test: In vitro antibacterial evaluation, MIC by microtitration broth method; conditions: Enterococcus faecalis
[14] = tested on: vancomycin-resistant E. faecalis VRE 342B; test: as above; conditions: Enterococcus faecalis
[15] = Lipophilicity determination by HPLC; assay type: physicochemical; conditions: for log D6.5: HPLC C18, MeOH 72%/acetate-buffered saline pH 6.5 28%; for log D7.4: HPLC C18, MeOH 72%/acetate-buffered saline pH 7.4 28%; for log k: logarithm of capacity factor, HPLC C18, MeOH 72%/H2O 28%
Excerpt: . A chromatographic column Symmetry® C18 5 μm, 4.6 × 250 mm, Part No. W21751W016 (Waters Corp, Milford, MA, USA) was used. The HPLC separation process was monitored by ChemStation for LC 3D systems (Agilent Technologies). Isocratic elution by a mixture of MeOH (HPLC grade, 72%) and H2O-HPLC Mili-Q grade (28%) as a mobile phase was used for the determination of capacity factor k. Isocratic elution by a mixture of MeOH (HPLC grade, 72%) and acetate-buffered saline (pH 7.4 and pH 6.5) (28%) as a mobile phase was used for the determination of distribution coefficient expressed as D7.4 and D6.5. The total flow of the column was 1.0 mL/min, injection was 20 μL, column temperature was 40 °C, and sample temperature was 10 °C. The detection wavelength of 210 nm was chosen. A KI methanolic solution was used for the determination of the dead times (tD). Retention times (tR) were measured in minutes. The capacity factors k were calculated according to the formula k = (tR − tD)/tD, where tR is the retention time of the solute, and tD is the dead time obtained using an unretained analyte. The distribution coefficients DpH were calculated according to the formula DpH = (tR − tD)/tD. Each experiment was repeated three times.

[16] = ATCC700084, 72 h, MS, three days, 37 °C, read-out: MIC

| Structure (SMILES) | MIC ([1]; 24 h) | MIC ([2]; 24 h) | MIC ([4]; 24 h) | IC50 [5] | MIC ([6]; ATCC29213, 24 h) | MIC ([7]; 24 h) | MBC [8] | MBC [9] | MIC (M. smegmatis ATCC 700084; [16]) | MIC ([10]; ATCC29212, 24 h) | MIC ([11]; 14 days, 37 °C) | MIC ([13]; 24 h) | MIC ([14]; 24 h) | log D6.5 [15] | log D7.4 [15] | log k [15] | MIC [1] | MIC [2] | MIC [4] | MIC ([6]; ATCC29213) | also measured |
| --- | --- | --- | --- | --- | --- | --- | --- | --- | --- | --- | --- | --- | --- | --- | --- | --- | --- | --- | --- | --- | --- |
| CCCC[C@H](NC(=O)c1cc(Cl)ccc1O)C(=O)Nc1ccc(C(F)(F)F)cc1 [3d, 5-Chloro-2-hydroxy-N-[(2S)-1-oxo-1-{[4-(trifluoromethyl)phenyl]amino}hexan-2-yl]benzamide] | 4.66 µM | > 256 µg/mL | 2.33 µM | 4.5 ± 1.2 µM | 0.583 µM | 2.33 µM | 1.17 µM (≈ 0.502 µg/mL) | 4.66 µM (≈ 2 µg/mL) | > 256 µg/mL | > 256 µg/mL | n.a. n.d. (n.a. = no activity (MIC > 256 µg/mL)) | > 256 µg/mL | > 256 µg/mL | 1.247 | 1.213 | 1.322 | – | – | – | – | MBC [3]: 4.66 µM (≈ 2 µg/mL); MBC [12]: 2.33 µM (≈ 0.999 µg/mL) |
| CC(C)C[C@H](NC(=O)[C@H](Cc1ccccc1)NC(=O)c1cc(Cl)ccc1O)C(=O)Nc1ccc(C(F)(F)F)cc1 [6b] | 444 µM | > 256 µg/mL | 55.6 µM | 1.6 ± 1 µM | 55.6 µM | 55.6 µM | 112 µM (≈ 64.5 µg/mL) | 444 µM (≈ 256 µg/mL) | > 256 µg/mL | > 256 µg/mL | n.a. n.d. (n.a. = no activity (MIC > 256 µg/mL)) | > 256 µg/mL | > 256 µg/mL | 1.528 | 1.453 | 1.547 | – | – | – | – | – |
| CC(C)[C@H](NC(=O)c1cc(Cl)ccc1OCc1ccccc1)C(=O)Nc1ccc(C(F)(F)F)cc1 [2c, 2-(Benzyloxy)-5-chloro-N-[(2S)-3-methyl-1-oxo-1-{[4-(trifluoromethyl)phenyl]amino}butan-2-yl]benzamide] | – | – | – | > 10 µM | – | – | – | – | – | – | – | – | – | 1.711 | 1.697 | 1.683 | > 256 µg/mL | > 256 µg/mL | > 256 µg/mL | > 256 µg/mL | MIC [7]: > 256 µg/mL; MIC (M. smegmatis ATCC 700084; ATCC700084): > 256 µg/mL; MIC ([10]; ATCC29212): > 256 µg/mL; MIC ([11]; Table S2): > 256 µg/mL; MIC [13]: > 256 µg/mL; MIC [14]: > 256 µg/mL |
| CC(C)C[C@H](NC(=O)c1cc(Cl)ccc1OCc1ccccc1)C(=O)N[C@@H](Cc1ccccc1)C(=O)Nc1ccc(C(F)(F)F)cc1 [5a] | – | – | – | > 10 µM | – | – | – | – | – | – | – | – | – | 1.998 | 2.031 | 2.053 | > 256 µg/mL | > 256 µg/mL | > 256 µg/mL | > 256 µg/mL | MIC [7]: > 256 µg/mL; MIC (M. smegmatis ATCC 700084; ATCC700084): > 256 µg/mL; MIC ([10]; ATCC29212): > 256 µg/mL; MIC ([11]; Table S2): > 256 µg/mL; MIC [13]: > 256 µg/mL; MIC [14]: > 256 µg/mL |
| C[C@H](NC(=O)c1cc(Cl)ccc1O)C(=O)Nc1ccc(C(F)(F)F)cc1 [3a, 5-Chloro-2-hydroxy-N-[(2S)-1-oxo-1-{[4-(trifluoromethyl)phenyl]amino}propan-2-yl]benzamide] | > 256 µg/mL | > 256 µg/mL | > 256 µg/mL | > 10 µM | > 256 µg/mL | > 256 µg/mL | – | – | > 256 µg/mL | > 256 µg/mL | n.a. n.d. (n.a. = no activity (MIC > 256 µg/mL)) | > 256 µg/mL | > 256 µg/mL | 0.804 | 0.759 | 0.866 | – | – | – | – | averaged lipophilicity value of log k/log D6.5/log D7.4 ([15]; average of the three experimental descriptors): 0.81 ± 0.05 |
